Laboratory results: PubChem BioAssay (NCI)
Where “and” joins values, the source holds several entries; their conditions need not be identical. Equal entries are not always repeated.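 Grown in 96-well plates, cells were treated for 48 hours with each compound at five concentrations. Insufficient inhibition: endpoint recorded as highest concentration tested. GI50 marks 50% less growth. Definition used: TGI = concentration required for complete inhibition of growth.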

How the values were obtained:
Assay in all cases: growth of human tumour cells (NCI), 48 h
A498 renal = test system: A498 renal
A549 NSCLC = test system: A549 NSCLC
CAKI-1 renal = test system: CAKI-1 renal
HCC-2998 colon = test system: HCC-2998 colon
HL-60(TB) leukemia = test system: HL-60(TB) leukemia
M14 melanoma = test system: M14 melanoma
MCF7 breast = test system: MCF7 breast
RPMI-8226 leukemia = test system: RPMI-8226 leukemia
SK-MEL-2 melanoma = test system: SK-MEL-2 melanoma
SK-OV-3 ovarian = test system: SK-OV-3 ovarian

SMILES | TGI (A498 renal) | TGI (A549 NSCLC) | TGI (CAKI-1 renal) | TGI (HCC-2998 colon) | TGI (HL-60(TB) leukemia) | TGI (M14 melanoma) | TGI (MCF7 breast) | TGI (RPMI-8226 leukemia) | TGI (SK-MEL-2 melanoma) | TGI (SK-OV-3 ovarian) | GI50 (A498 renal) | GI50 (A549 NSCLC) | GI50 (CAKI-1 renal) | GI50 (HCC-2998 colon) | GI50 (HL-60(TB) leukemia) | GI50 (M14 melanoma) | GI50 (MCF7 breast) | GI50 (RPMI-8226 leukemia) | GI50 (SK-MEL-2 melanoma) | GI50 (SK-OV-3 ovarian)
NC(=O)C(=O)n1ncc(Cl)c(Cl)c1=O | > 100 µM | > 100 µM | 43.5 µM | 32.1 µM | 17.7 µM | 46.9 µM | > 100 µM | 51.9 µM | 30.8 µM | > 100 µM | – | – | – | – | – | – | – | – | – | –
CN(C)CCCN1c2ccccc2Sc2ccc(Cl)cc21 | 23.7 µM and 16.6 µM | 11.3 µM and 14.1 µM | 20.7 µM and 20.8 µM | 4.14 µM | 20.7 µM and 28.6 µM | 3.89 µM and 6.18 µM | 12.6 µM and 13.7 µM | 32.6 µM | 13.4 µM and 19.5 µM | 7.62 µM and 9.3 µM | 10.5 µM and 3.46 µM | 3.31 µM and 3.37 µM | 6.78 µM and 6.91 µM | 1.97 µM | 4.98 µM and 11.6 µM | 2.03 µM and 2.58 µM | 3.15 µM and 3.46 µM | 13.6 µM | 3.81 µM and 5.52 µM | 2.76 µM and 3.22 µM
Fc1c[c-]c(-c2ccccn2)c(F)c1.[CH3-].[Pt+2].c1ccc(P(C[PH+](c2ccccc2)c2ccccc2)c2ccccc2)cc1 | 1.58 µM | 4.7 µM | 1.96 µM | 1.29 µM | 1.56 µM | 2.31 µM | 2.98 µM | 1.87 µM | 1.89 µM | 6.03 µM | 0.712 µM | 0.393 µM | 0.869 µM | 0.484 µM | 0.38 µM | 0.71 µM | 0.577 µM | 0.262 µM | 0.695 µM | 0.816 µM
CC(C)(CO)N=Cc1ccccc1[O-].CC(C)(CO)N=Cc1ccccc1[O-].[Co+2] | > 100 µM | > 100 µM | > 100 µM | > 100 µM | 79.4 µM | > 100 µM | > 100 µM | > 93 µM | > 100 µM | > 100 µM | > 100 µM | > 100 µM | 53.7 µM | 75.4 µM | 11.8 µM | 38.7 µM | 27.3 µM | 30.2 µM | > 76.5 µM | > 100 µM
O=C(CCN1CCCC1)Nc1ccc2c(Nc3ccccc3)c3ccccc3nc2c1 | 2.22 µM | 3.22 µM | 2.08 µM | 2.29 µM | 1.61 µM | 2.69 µM | 1.77 µM | 1.65 µM | 3.56 µM | 3.59 µM | 0.864 µM | 0.113 µM | 0.397 µM | 0.733 µM | 0.264 µM | 1.13 µM | 0.0221 µM | 0.48 µM | 1.69 µM | 0.651 µM
O=C(O)C1C(C(=O)O)C2(Cl)C(Cl)=C(Cl)C1(Cl)C2(Cl)Cl.[Cd] (configuration not stated) | > 100 µM | 39 µM | 34.4 µM | 47.7 µM | 72.1 µM | 38.9 µM | 35.9 µM | 48.4 µM | 26.8 µM | 36.2 µM | > 100 µM | 18.7 µM | 17.8 µM | 22.6 µM | 28.4 µM | 19.2 µM | 17.3 µM | 6.64 µM | 9.22 µM | 19.6 µM
CC[C@H](C)[C@H](NC(=O)[C@H]1CCCCN1C)C(=O)N(C)[C@H](C[C@@H](OC(C)=O)c1nc(C(=O)N[C@@H](Cc2ccccc2)C[C@H](C)C(=O)OC)cs1)C(C)C | < 0.0025 µM | > 25 µM | – | > 25 µM | 0.000743 µM and < 0.0025 µM | < 0.0025 µM | > 25 µM | 8.97 µM | < 0.0025 µM | > 25 µM | 0.000267 µM and < 0.0025 µM | 0.000523 µM and 0.0025 µM | 0.000792 µM | 0.00032 µM and 0.0025 µM | 0.000249 µM and < 0.0025 µM | 0.000331 µM and < 0.0025 µM | – | – | 0.000463 µM and < 0.0025 µM | 0.000264 µM and 0.0025 µM
Nc1ncnc2c1c(-c1ccc(Oc3ccccc3)cc1)nn2C[C@@H]1SSC[C@@H]1O | 5.35 µM | 2.57 µM | 5.01 µM | 14.8 µM | 7.89 µM | 0.0462 µM | 1.31 µM | 14.6 µM | 0.502 µM | 3.71 µM | 2.01 µM | 0.479 µM | 1.36 µM | 0.479 µM | 0.576 µM | 0.0212 µM | 0.129 µM | 2.86 µM | 0.212 µM | 0.498 µM
CN(C)C(=O)SC1=C(c2c(Cl)cccc2Cl)C(=O)c2ccccc21 | 31.7 µM | > 55.7 µM | 5.72 µM | 29.2 µM | 6.53 µM | 7.79 µM | 7.73 µM | 5.84 µM | 13.7 µM | 36.5 µM | 16.1 µM | 24.8 µM | 2.15 µM | 15.6 µM | 2.84 µM | 3.03 µM | 2.51 µM | 2.2 µM | 7.12 µM | 18.6 µM
c1ccc(CC(NCCNC(Cc2ccccc2)c2ccccc2)c2ccccc2)cc1 (configuration not stated) | 2.66 µM | 4.69 µM | 2.44 µM | 1.55 µM | 0.89 µM | 1.01 µM | 1.14 µM | 0.524 µM | 2.57 µM | 3.93 µM | 1.25 µM | 1.1 µM | 0.456 µM | 0.393 µM | 0.322 µM | 0.302 µM | 0.311 µM | 0.243 µM | 1.16 µM | 1.3 µM
COc1ccc2[nH]c(-c3ccccc3)cc2c1 | > 100 µM | > 100 µM | > 100 µM | > 100 µM | > 100 µM | > 100 µM | > 100 µM | > 100 µM | > 100 µM | > 100 µM | 20.8 µM | > 100 µM | > 100 µM | > 100 µM | > 100 µM | > 100 µM | 86.6 µM | 43.2 µM | > 100 µM | > 100 µM
O=C(Nc1cc(S(=O)(=O)c2ccc(Cl)cc2)ccc1Cl)c1cc(I)cc(I)c1O | 31.6 µM | 38.2 µM | 38.2 µM | 27.2 µM | 31.6 µM | 35 µM | 36.9 µM | 0.833 µM | 39.4 µM | 31.5 µM | 15.3 µM | 19.3 µM | 20.3 µM | 13.2 µM | 14.5 µM | 17.6 µM | 18.4 µM | 0.0515 µM | 16.6 µM | 17.2 µM
C=CC(=O)Nc1cccc(Nc2nc(Nc3ccc(OCCOC(F)F)cc3)ncc2F)c1 | 1.83 µM | 20.2 µM | 10.1 µM | 47.6 µM | 10.4 µM | 18.8 µM | 41.2 µM | 14.7 µM | 6.82 µM | 3.34 µM | 0.408 µM | 3.56 µM | 1.28 µM | 12.6 µM | 2.02 µM | 2.54 µM | 3 µM | 2.48 µM | 1.8 µM | 0.706 µM
CC(=O)Oc1ccc(C2(c3ccc(OC(C)=O)cc3)C(=O)Nc3ccccc32)cc1 | > 76.1 µM and 89.8 µM | > 100 µM | > 100 µM | > 100 µM | > 71.9 µM | > 100 µM | > 49.3 µM | > 93.2 µM | 96.9 µM and > 100 µM | > 100 µM | 24.6 µM and 26.8 µM | 33.8 µM and 42.9 µM | 31.4 µM and 31.8 µM | 29.7 µM and 23.1 µM | 15.1 µM and 30.9 µM | 34.4 µM and 38.2 µM | 0.229 µM and 0.278 µM | 20.5 µM and 17.6 µM | 30.4 µM and 52.8 µM | 31.8 µM and 58.9 µM
COc1cc2nnn3c4ncccc4c(N=O)c3c2cc1OC | 35.3 µM | > 69.2 µM | 1.27 µM | 10.8 µM | > 100 µM | 13 µM | > 74.5 µM | > 100 µM | > 68.1 µM | 41.7 µM | 15.1 µM | 18.2 µM | 0.131 µM | 2.28 µM | 0.0506 µM | 4.58 µM | 0.327 µM | 0.173 µM | 16.5 µM | 6.96 µM
CCCCCCCCCCCCCCCCS(=O)(=O)c1ccc(NN)cc1 | > 10 µM | > 10 µM | > 10 µM | > 10 µM | 6.17 µM | > 10 µM | > 10 µM | > 10 µM | > 10 µM | > 10 µM | – | – | – | – | – | – | – | – | – | –
Cc1ccc(-n2c3c(c4c(CN5CCOCC5)c(O)ccc42)CCc2ccccc2C3=O)cc1 | > 100 µM | > 100 µM | > 100 µM | > 100 µM | 92.2 µM | > 100 µM | > 100 µM | > 100 µM | > 100 µM | > 100 µM | > 100 µM | 82.3 µM | 94.1 µM | > 100 µM | 19.9 µM | > 100 µM | > 100 µM | 21 µM | > 100 µM | > 100 µM
Cc1n(Cc2ccc3ccccc3c2)c(Cl)c(Cl)[n+]1Cc1ccc2ccccc2c1 | 4.57 µM | 22 µM | 4.67 µM | 3.14 µM | 3.55 µM | 3.99 µM | 3.37 µM | 3.12 µM | 4.13 µM | 9.62 µM | 1.56 µM | 5.07 µM | 1.85 µM | 1.66 µM | 1.11 µM | 1.79 µM | 1.61 µM | 1.05 µM | 2.07 µM | 2.52 µM
CCc1cccc(CC)c1/C=C/c1cncc(C(=O)NC)c1 | > 22.2 µM | > 25 µM | > 25 µM | > 25 µM | > 23.8 µM | 18.8 µM | > 25 µM | > 25 µM | > 22.6 µM | > 25 µM | 8.68 µM | 9.3 µM | 9.62 µM | 11.2 µM | > 13.6 µM | 6.57 µM | 7.74 µM | 9.46 µM | 10.9 µM | 8.75 µM
COc1ccc2cc(-c3c(-c4ccncc4)nc(-c4ccc(S(C)=O)cc4C)n3C)ccc2c1 (configuration not stated) | > 25 µM | > 25 µM | > 25 µM | > 25 µM | > 25 µM | > 25 µM | > 25 µM | > 25 µM | > 25 µM | > 25 µM | 8.32 µM | 15.5 µM | 6.98 µM | > 25 µM | 9.61 µM | > 21.6 µM | 14.1 µM | 14.1 µM | > 25 µM | 11.3 µM
